Data as given in patent US20100062969A1, “HYDROPHILIC POLYMER-CONJUGATED LIPIDS FOR PEPTIDE AND PROTEIN FOLDING DISORDERS” (priority 2006, published 2010).

What was measured:
[1] = α-Helicity of VIP by circular dichroism; assay type: physicochemical
Protocol: (§1) • Lipid:peptide saturation ratio and number of peptide/micelle were determined via fluorescent spectroscopy where 10 μM of VIP was incubuated with varying concentration of SSM or SSMM to achieve lipid:peptide molar ratio ranging from 0 to 40. The data was then fitted into a simple, rectangular hyperbola curve using SigmaPlot® to determine lipid:peptide saturation ratio. The maximum number of peptide molecules that could interact with each micelle was calculated from the aggregation number of lipid monomers per micelle (˜90) for both SSM and SSMM (Ashok B, et al. J Pharm Sci 2004; 93: 2476-2487). • α-helicity was determined by CD using 20 μM of VIP in 5 mM of SSM or SSMM (lipid:VIP ratio of 250:1). The same samples were used for particle size measurement. • Fluorescent anisotropy was conducted using 100 μM of VIP in 4.5 mM of SSM or SSMM (lipid:VIP ratio of 45:1) which is close to the lipid:peptide saturation ratio. The measurements were done using Perkin Elmer luminescence spectrometer LS50B.

[2] = Circulating half life of VIP in vivo; details: read-out: Circulating t½ in vivo (converted)
[3] = Fluorescent anisotropy of VIP; assay type: physicochemical; details: 100 μM VIP, […] SSM or SSMM (lipid:VIP 45:1)
Protocol: as §1

[4] = Stability of VIP and VIP-SSM in human serum; details: buffer or solvent
Protocol: Since VIP is highly susceptible to enzymatic hydrolysis in serum, we have also tested serum stability of SSM-VIP formulation in a surrogate in vitro system. Briefly, DSPE-PEG2000 (5 mM) was weighed and hydrated (10 mM HEPES buffer, pH 7.4). VIP (5 nmol) was added to preformed SSM and incubated for 2 h at 25° C. to form VIP-SSM. Formulation was then incubated in human serum (25, 50% v/v). Sample aliquots were removed and analyzed on 0, 1, 3, 5 and 7 days following storage at 37° C. These samples were analyzed for the % of intact VIP associated with SSM following separation of unbound VIP from SSM.

Which results are given for `CC[C@H](C)[C@H](NC(=O)[C@H](CO)NC(=O)[C@H](CC(N)=O)NC(=O)[C@H](CC(C)C)NC(=O)[C@H](Cc1ccc(O)cc1)NC(=O)[C@H](CCCCN)NC(=O)[C@H](CCCCN)NC(=O)[C@@H](NC(=O)[C@H](C)NC(=O)[C@H](CCSC)NC(=O)[C@H](CCC(N)=O)NC(=O)[C@H](CCCCN)NC(=O)[C@H](CCCNC(=N)N)NC(=O)[C@H](CC(C)C)NC(=O)[C@H](CCCNC(=N)N)NC(=O)[C@@H](NC(=O)[C@H](Cc1ccc(O)cc1)NC(=O)[C@H](CC(N)=O)NC(=O)[C@H](CC(=O)O)NC(=O)[C@@H](NC(=O)[C@H](Cc1ccccc1)NC(=O)[C@@H](NC(=O)[C@H](C)NC(=O)[C@H](CC(=O)O)NC(=O)[C@H](CO)NC(=O)[C@@H](N)Cc1c[nH]cn1)C(C)C)[C@@H](C)O)[C@@H](C)O)C(C)C)C(=O)N[C@@H](CC(C)C)C(=O)N[C@@H](CC(N)=O)C(N)=O` [VIP in saline, vasoactive intestinal peptide]?
% α-Helix of VIP [1]: 5 ± 1%; half-life [2]: 18 min; Anisotropy [3]: 0.052 ± 0.004; metabolised at 24 h [4]: ~65%
